Literature values as cited in patent US20140023695A1, “PATCH PREPARATION” (priority 2011, published 2014).

How the values were obtained:
dopamine D2 = dopamine D2 (Homo sapiens, UniProt P14416); conditions: as compared to existing antipsychotic, haloperidol
serotonin 5-HT2 receptor = conditions: as compared to existing antipsychotic, haloperidol

dopamine D2, sequence (P14416 whole entry): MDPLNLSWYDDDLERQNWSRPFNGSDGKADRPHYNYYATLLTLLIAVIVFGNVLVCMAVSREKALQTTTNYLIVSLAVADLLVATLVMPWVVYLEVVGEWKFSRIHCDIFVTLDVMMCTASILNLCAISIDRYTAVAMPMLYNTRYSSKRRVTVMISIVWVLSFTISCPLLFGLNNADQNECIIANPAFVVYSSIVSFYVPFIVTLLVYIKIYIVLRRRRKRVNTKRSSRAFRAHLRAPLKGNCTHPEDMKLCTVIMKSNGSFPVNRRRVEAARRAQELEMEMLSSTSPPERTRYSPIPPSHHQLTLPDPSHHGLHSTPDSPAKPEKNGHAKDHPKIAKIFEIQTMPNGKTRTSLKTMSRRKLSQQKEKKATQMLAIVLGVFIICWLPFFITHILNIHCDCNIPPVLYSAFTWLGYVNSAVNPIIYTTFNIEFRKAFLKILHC

affinity for dopamine D2 (dopamine D2): higher affinity | affinity for serotonin 5-HT2 receptor (serotonin 5-HT2 receptor): higher affinity
SMILES: CCN1CCN(c2cc(-c3ccc(F)cc3)c3c(n2)CCCCCC3)CC1 [compound A, 2-(4-Ethyl-1-piperazinyl)-4-(4-fluorophenyl)-5,6,7,8,9,10-hexahydrocycloocta[b]pyridine]
